Tested on: Colo205 human colon carcinoma cell line
Assay: In vitro tumor cell proliferation assay (MTS, CellTiter 96 Aqueous One Solution)
Format: cell-based
Details: COLO 205, Colo205 cells, 72 hours compound exposure, MTS absorbance at 490 nm, read-out: IC50 (concentration of test compound required to inhibit proliferation of 50% of the cells)
Method: In Vitro Tumor Cell Proliferation Assay
The adherent H460 human non-small cell lung carcinoma and Colo205 human colon carcinoma cell lines were purchased from the American Type and Culture Collection (ATCC, Manassas, Va.) and maintained in RPMI-1640 growth media supplemented with 10% heat inactivated fetal bovine serum (Gibco, Invitrogen Corp. Grand Island, N.Y.). At 37° C. in a humidified atmosphere of 5% CO2.
The CellTiter 960 Aqueous One Solution kit, MTS, (Promega, Madison, Wis.) was used to measure proliferation of tumor cell lines in vitro. This method monitors the bioreduction of a tetrazolium dye as a measure of cell viability. On Day 0, exponentially growing cells were trypsinized, resuspended in RPMI-1640 growth media supplemented with 10% FCS, 100 u/ml of penicillin G and 100 ug/ml of streptomycin sulfate, and seeded at 2000 cells per well into 96 well microtiter plates. Cells were incubated overnight in a humidified atmosphere of 5% CO2 at 37° C. On Day 1, serial dilutions of compounds were prepared at 2× the finial assay concentration. One hundred microliters of 2× solution was added to test wells in duplicate and control wells received no test compound. The final drug concentration ranged from 0 to 10-20 um in a 5 point dose-response curve. Cells were incubated in the presence of test compounds in a humidified atmosphere of 5% CO2 at 37° C. for 72 hours. After 72 hours of compound exposure, 40 ul of Promega CellTiter 960 Aqueous One Solution was added to each well and absorbance at 490 n-M was measured using a multi-well plate reader. Percent inhibition of proliferation was calculated using the following formula: 100×(1−Absorbancetreated−Background/(Absorbancecontrol−Background)
Absorbancetreated=absorbance at 490 nm in test wells, cells with test compound
Absorbancecontrol=absorbance at 490 nm in control wells, cells with no test compound
Background=absorbance 490 nm in wells containing media and no cells
The concentration of test compound required to inhibit proliferation of 50% of the cells (IC50) was determined by linear regression analysis.
Representative compounds of the invention were tested in the above-described Colo205 human colon carcinoma cell line in vitro assay and found to inhibit human colon carcinoma cell proliferation, and are summarized as follows: […]

SMILES	IC50
CN(C)CCc1ccc(-n2cc(C(=O)O)c(=O)c3cc(F)c(N4CCN(c5ccc(Cl)cc5)CC4)c(Cl)c32)cc1 [Example 70, 8-chloro-7-[4-(4-chlorophenyl)piperazin-1-yl]-1-{4-[2-(dimethylamino)ethyl]phenyl}-6-fluoro-4-oxo-1,4-dihydroquinoline-3-carboxylic acid]	500 to 2000 nM
CN(C)CCc1ccc(-n2cc(C(=O)O)c(=O)c3cc(F)c(N4CCN(c5ccccn5)CC4)c(Cl)c32)cc1 [Example 69, 8-chloro-1-{4-[2-(dimethylamino)ethyl]phenyl}-6-fluoro-4-oxo-7-(4-pyridin-2-ylpiperazin-1-yl)-1,4-dihydroquinoline-3-carboxylic acid]	< 500 nM
Cc1cccc(N2CCN(c3c(F)cc4c(=O)c(C(=O)O)cn(-c5ccc(CN6CCCC6)cc5F)c4c3Cl)CC2)n1 [Example 175, 8-chloro-6-fluoro-1-(2-fluoro-4-pyrrolidin-1-ylmethyl-phenyl)-7-[4-(6-methylpyridine-2-yl)-piperazine-1-yl]-4-oxo-1,4-dihydroquinoline-3-carboxylic acid]	< 500 nM
O=C(O)c1cn(-c2ccc(CN3CCCC3)c(F)c2)c2c(Cl)c(N3CCN(c4ccc(F)cc4)CC3)c(F)cc2c1=O [Example 186, 8-chloro-7-[4-(4-fluorophenyl)-piperazine-1-yl]-6-fluoro-1-(3-fluoro-4-pyrrolidin-1-ylmethyl-phenyl)-4-oxo-1,4-dihydroquinoline-3-carboxylic acid]	< 500 nM
COc1c(N2CCN(c3ccc(Cl)cc3)CC2)c(F)cc2c(=O)c(C(=O)O)cn(-c3ccc(CN4CCCC4)cc3)c12 [Example 80, 7-[4-(4-chlorophenyl)piperazin-1-yl]-6-fluoro-8-methoxy-4-oxo-1-[4-(pyrrolidin-1-ylmethyl)phenyl]-1,4-dihydroquinoline-3-carboxylic acid]	500 to 2000 nM
O=C(O)c1cn(-c2cccc(CN3CCCCC3)c2)c2c(Cl)c(N3CCN(c4ccc(F)cc4)CC3)c(F)cc2c1=O [Example 67, 8-chloro-6-fluoro-7-[4-(4-fluorophenyl)-piperazin-1-yl]-4-oxo-1-[3-(piperidin-1-ylmethyl)phenyl]-1,4-dihydroquinoline-3-carboxylic acid]	2000 to 20000 nM
Cc1cccnc1N1CCN(c2c(F)cc3c(=O)c(C(=O)O)cn(-c4ccc(CN5CCCC5)cc4)c3c2OC(F)(F)F)CC1 [Example 122, 6-fluoro-7-[4-(3-methylpyridin-2-yl)-piperazin-1-yl]-4-oxo-1-[4-(pyrrolidin-1-ylmethyl)phenyl]-8-(trifluoromethoxy)-1,4-dihydroquinoline-3-carboxylic acid]	< 500 nM
CN(Cc1ccc(-n2cc(C(=O)O)c(=O)c3cc(F)c(N4CCN(c5ccccn5)CC4)c(Cl)c32)cc1)C1CCCCC1 [Example 61, 8-chloro-1-(4-{[cyclohexyl(methyl)amino]-methyl}phenyl)-6-fluoro-4-oxo-7-(4-pyridin-2-ylpiperazin-1-yl)-1,4-dihydroquinoline-3-carboxylic acid]	< 500 nM
CCN(CC)Cc1ccc(-n2cc(C(=O)O)c(=O)c3cc(F)c(N4CCN(c5ccc(F)cc5F)CC4)c(OC)c32)cc1 [Example 111, 1-{4-[(diethylamino)methyl]phenyl}-7-[4-(2,4-difluorophenyl)piperazin-1-yl]-6-fluoro-8-methoxy-4-oxo-1,4-dihydroquinoline-3-carboxylic acid]	500 to 2000 nM
O=C(O)c1cn(-c2ccc(CNC3CCCC3)cc2)c2c(Cl)c(N3CCN(c4ccccn4)CC3)c(F)cc2c1=O [Example 56, 8-chloro-1-{4-[(cyclopentylamino)-methyl]phenyl}-6-fluoro-4-oxo-7-(4-pyridin-2-ylpiperazin-1-yl)-1,4-dihydroquinoline-3-carboxylic acid]	< 500 nM
COc1c(N2CCN(c3ccccn3)CC2)c(F)cc2c(=O)c(C(=O)O)cn(-c3ccc(CN(C)C)cc3)c12 [Example 92, 1-{4-[(dimethylamino)methyl]phenyl}-6-fluoro-8-methoxy-4-oxo-7-(4-pyridin-2-ylpiperazin-1-yl)-1,4-dihydroquinoline-3-carboxylic acid]	< 500 nM
O=C(O)c1cn(-c2ccc(CN3CCCC3)cc2)c2c(Cl)c(N3CCN(c4ccccn4)CC3)c(F)cc2c1=O [Example 1, 8-chloro-6-fluoro-4-oxo-7-(4-pyridin-2-yl-piperazin-1-yl)-1-[4-(pyrrolidin-1-ylmethyl)phenyl]-1,4-dihydroquinoline-3-carboxylic acid]	< 500 nM
CCN(CC)Cc1ccc(-n2cc(C(=O)O)c(=O)c3cc(F)c(N4CCN(c5ncccc5C#N)CC4)c(OC)c32)cc1 [Example 113, 7-[4-(3-cyanopyridin-2-yl)piperazin-1-yl]-1-{4-[(diethylamino)methyl]phenyl}-6-fluoro-8-methoxy-4-oxo-1,4-dihydroquinoline-3-carboxylic acid]	< 500 nM
NC(=O)c1ccccc1N1CCN(c2c(F)cc3c(=O)c(C(=O)O)cn(-c4ccc(CN5CCCC5)cc4)c3c2Cl)CC1 [Example 10, 7-{4-[2-(aminocarbonyl)phenyl]piperazin-1-yl}-8-chloro-6-fluoro-4-oxo-1-[4-(pyrrolidin-1-ylmethyl)phenyl]-1,4-dihydroquinoline-3-carboxylic acid]	2000 to 20000 nM
Cc1ccccc1N1CCN(c2c(F)cc3c(=O)c(C(=O)O)cn(-c4ccc(CN5CCCC5)cc4)c3c2Cl)CC1 [Example 11, 8-chloro-6-fluoro-7-[4-(2-methylphenyl)-piperazin-1-yl]-4-oxo-1-[4-(pyrrolidin-1-ylmethyl)phenyl]-1,4-dihydroquinoline-3-carboxylic acid]	500 to 2000 nM
N#Cc1ccccc1N1CCN(c2c(F)cc3c(=O)c(C(=O)O)cn(-c4ccc(CN5CCCC5)c(F)c4)c3c2Cl)CC1 [Example 185, 8-chloro-7-[4-(2-cyanophenyl)-piperazine-1-yl]-6-fluoro-1-(3-fluoro-4-pyrrolidin-1-ylmethyl-phenyl)-4-oxo-1,4-dihydroquinoline-3-carboxylic acid]	< 500 nM
CCN(C)Cc1ccc(-n2cc(C(=O)O)c(=O)c3cc(F)c(N4CCN(c5ncccc5C#N)CC4)c(OC(F)(F)Cl)c32)cc1 [Example 166, 8-[chloro(difluoro)methoxy]-7-[4-(3-cyanopyridin-2-yl)piperazin-1-yl]-1-(4-{[ethyl(methyl)amino]methyl}phenyl)-6-fluoro-4-oxo-1,4-dihydroquinoline-3-carboxylic acid]	< 500 nM
N#Cc1c(N2CCN(c3ccccn3)CC2)c(F)cc2c(=O)c(C(=O)O)cn(-c3ccc(CN4CCCC4)cc3)c12 [Example 169, 8-cyano-6-fluoro-4-oxo-7-(4-pyridin-2-ylpiperazin-1-yl)-1-[4-(pyrrolidin-1-ylmethyl)phenyl]-1,4-dihydroquinoline-3-carboxylic acid]	500 to 2000 nM
CCN(CC)Cc1ccc(-n2cc(C(=O)O)c(=O)c3cc(F)c(N4CCN(c5ccccn5)CC4)c(OC(F)(F)F)c32)cc1 [Example 132, 1-{4-[(diethylamino)methyl]phenyl}-6-fluoro-4-oxo-7-(4-pyridin-2-ylpiperazin-1-yl)-8-(trifluoromethoxy)-1,4-dihydroquinoline-3-carboxylic acid]	< 500 nM
O=C(O)c1cn(-c2ccc(CNC3CC3)cc2)c2c(Cl)c(N3CCN(c4ncccn4)CC3)c(F)cc2c1=O [Example 60, 8-chloro-1-{4-[(cyclopropylamino)methyl]-phenyl}-6-fluoro-4-oxo-7-(4-pyrimidin-2-ylpiperazin-1-yl)-1,4-dihydroquinoline-3-carboxylic acid]	< 500 nM
N#Cc1cccnc1N1CCN(c2c(F)cc3c(=O)c(C(=O)O)cn(-c4ccc(CN5CCCC5)cc4F)c3c2Cl)CC1 [Example 45, 8-chloro-7-[4-(3-cyanopyridin-2-yl)piperazin-1-yl]-6-fluoro-1-[2-fluoro-4-(pyrrolidin-1-ylmethyl)phenyl]-4-oxo-1,4-dihydroquinoline-3-carboxylic acid]	< 500 nM
O=C(O)c1cn(-c2ccc(CNC3CCCCC3)cc2)c2c(Cl)c(N3CCN(c4ccccn4)CC3)c(F)cc2c1=O [Example 171, 8-chloro-1-(4-cyclohexylaminomethyl-phenyl)-6-fluoro-4-oxo-7-(4-pyridin-2-yl-piperazin-1-yl)-1,4-dihydroquinoline-3-carboxylic acid]	< 500 nM
CC1CCCN1Cc1ccc(-n2cc(C(=O)O)c(=O)c3cc(F)c(N4CCN(c5ccccn5)CC4)c(Cl)c32)cc1 (centres unmarked) [Example 17, 8-chloro-6-fluoro-1-{4-[(2-methylpyrrolidin-1-yl)methyl]phenyl}-4-oxo-7-(4-pyridin-2-ylpiperazin-1-yl)-1,4-dihydroquinoline-3-carboxylic acid]	< 500 nM

Source: patent publication US20070213339A1 (Bayer Pharmaceuticals Corporation, priority 2004, published 2007)
